Results published in US12589158B2 (priority 2022, dated 2026).
Where two headings read alike, the source gives them in different places.

What was measured:
[1] = Pharmacokinetics following single administration in SD rat; design: species or system SD rats; conditions: in vivo, sc, 50 nmol/kg
Description: The compound is administrated to male SD rats (230-268 g, n=3) at a dose of 50.0 nmol/kg (s.c.) or 25.0 nmol/kg (i.v.). […] 30.0 μL of thawed plasma sample is taken. 150 μL of acetonitrile solution (containing 5 ng mL^−1 Verapamil, 50 ng·mL^−1 Glibenclamide, 200 ng·mL^−1 Tolbutamide and 200 ng·mL^−1 Diclofenac) are added to precipitate protein. The mixture is vortexed for 5 minutes, and centrifuged at 3700 rpm for 8 minutes. 70.0 μL of the supernatant is taken, into which 70.0 μL of 0.5% aqueous formic acid solution is added. The mixture is vortexed for 5 minutes. 15 μL of the mixture solution is sampled and injected into the LC-MS/MS to determine the drug concentration in plasma. 20.0 μL of thawed plasma sample is taken. 60 μL of acetonitrile solution (containing 5 ng mL^−1 Verapamil, 50 ng·mL^−1 Glibenclamide, 200 ng·mL^−1 Tolbutamide and 200 ng·mL^−1 Diclofenac) are added to precipitate protein. […] The mixture is vortexed for 10 minutes. 10.0 μL of the mixture solution is sampled and injected into the LC-MS/MS to determine the drug concentration in plasma. 30.0 μL of thawed plasma sample is taken. 150 μL of acetonitrile solution (containing 5 ng mL^−1 Verapamil, 50 ng mL^−1 Glibenclamide, 200 ng·mL^−1 Tolbutamide and 200 ng·mL^−1 Diclofenac) are added to precipitate protein. The mixture is vortexed for 5 minutes, and centrifuged at 3700 rpm for 8 minutes. 70.0 μL of the supernatant is taken, into which 70.0 μL of 0.5% aqueous formic acid solution is added. The mixture is vortexed for 5 minutes. 10.0 μL of the mixture solution is sampled and injected into the LC-MS/MS to determine the drug concentration in plasma.

[2] = Pharmacokinetics in C57 mice; conditions: mouse, in vivo
Description: After subcutaneous or intravenous administration to C57 mice, plasma is collected and the drug concentration in plasma is determined to illustrate the in vivo pharmacokinetic properties of the compound according to the present invention. […] 20.0 μL of thawed plasma sample is taken. 20 μL of 50% aqueous methanol solution (containing 100 ng mL^−1 internal standard) and 60 μL of acetonitrile are added sequentially to precipitate protein. The mixture is vortexed for 5 minutes, and centrifuged at 3700 rpm for 8 minutes. 50.0 μL of the supernatant is taken, into which 50.0 μL of 0.5% aqueous formic acid solution is added. The mixture is vortexed for 5 minutes. 50 μL of the mixture solution is sampled and injected into the LC-MS/MS to determine the drug concentration in plasma.

[3] = Pharmacokinetics in cynomolgus monkeys; conditions: cynomolgus monkey, in vivo
Description: After subcutaneous or intravenous administration to cynomolgus monkeys, plasma is collected and the drug concentration in plasma is determined to illustrate the in vivo pharmacokinetic properties of the compound according to the present invention. The compound is dissolved in 1.4% PG in 8 mM Na2HPO4 Buffer (pH 7.39), and filtered through a filter membrane (PTFE, 0.45 μm) to obtain 25 and 12.5 nmol/mL solution of the compound respectively. The obtained solutions are administered to cynomolgus monkeys (4-8 kg) at a dose of 25 nmol/kg subcutaneously (s.c.) or 12.5 nmol/kg intravenously (i.v.). […] The blood samples are centrifuged at 2200 g for 10 minutes to obtain a plasma, which is stored at −90° C. to −60° C. for further analysis and assay.
70.0 μL of thawed plasma sample is taken. 70 μL of acetonitrile (containing 1 ng/ml of the internal standard) is added to precipitate protein. The mixture is vortexed for 1 minute, and centrifuged at 14000 rpm for 10 minutes. 60.0 μL of the supernatant is taken, into which 60.0 μL of 0.5% aqueous formic acid solution is added. The mixture is vortexed for 5 minutes. 10 μL of the mixture solution is sampled and injected into the LC-MS/MS to determine the drug concentration in plasma.
Based on the drug concentration in plasma of the compounds in the cynomolgus monkeys, the pharmacokinetic parameters are calculated by applying the software Winnolin 8.2 in a non-compartmental model, and the results are shown in Table 9 and Table 10 below.

[4] = Pharmacokinetics in beagle dogs; type: in vivo; conditions: 0.05 mg/kg
Description: After subcutaneous administration to beagle dogs, plasma is collected and the drug concentration in plasma is determined to illustrate the in vivo pharmacokinetic properties of the compound according to the present invention. The compound of the present invention is administered to a beagle dog (7-9 kg) at a dose of 0.05 mg/kg subcutaneously (s.c.). About 500 μL of whole blood is collected from the saphenous vein into an EDTA-K2 anticoagulant tube at predose, 0.5 hours, 1 hour, 2 hours, 6 hours, 10 hours, 24 hours, 48 hours, 72 hours and 96 hours, respectively. The blood samples are centrifuged at 3000 g and at 2° C. to 8° C. for 10 minutes to obtain plasma, which is stored at −90° C. to −60° C. for further analysis and assay.
20.0 μL of thawed plasma sample is taken. […] Then 120 μL of 0.1% formic acid methanol is added to precipitate the protein. The mixture is vortexed for 5 minutes, and centrifuged at 4815 g for 10 minutes. 100.0 μL of the supernatant is taken, into which 100 μL of 0.5% aqueous formic acid solution is added. The mixture is vortexed for 5 minutes. 10 μL of the mixture solution is sampled and injected into the LC-MS/MS to determine the drug concentration in plasma.
Based on the drug concentration in plasma of the compound in the beagle dogs, the pharmacokinetic parameters are calculated by applying the software Winnolin 8.3 in a non-compartmental model.

[5] = type: in vivo; conditions: rat, in vivo, male SD rats
Description: (§1) 77 SD male rats (SPF grade) are selected and randomly divided into 10 groups based on body weight. Group 1 is the vehicle control group, including 5 animals. […] Group 5 to Group 7 are the groups administrated with the test substance 1; and Group 8 to Group 10 are the groups administrated with the test substance 2, each group including 8 animals, wherein 5 animals for primary test, and 3 animals for toxicokinetics test, and the administration dose is 1, 3 and 10 mg/kg respectively. Each of the above groups is continuously administered twice a week for 2 weeks (administrating at Day 1, Day 5, Day 8, Day 12 and Day 15).
(§2) During the experiment, the cage condition monitoring, detailed clinical observations, determination of the food consumption, determination of body weight, measurement of the blood biochemical and hematology indicator, investigation of the gross anatomy, weighing of the organ, studying on toxicokinetic are performed on all the groups of the animals.
(§3) Original data during each time period is tabulated. The average values and standard deviations and/or group change are calculated for each assay endpoint based on the group and sex. For each endpoint, the administrated group will be compared with the control group in the following aspect. A logarithmic conversion is performed to the endpoint data as desired prior to the start of the specific analyses.

SD male rats = type: in vivo
Description: as §1, §2, §3

[6] = in vivo
[7] = male SD rats, twice a week for 2 weeks, 1, 3, 10 mg/kg

For `CC[C@H](C)[C@H](NC(=O)C(C)(C)NC(=O)[C@H](Cc1ccc(O)cc1)NC(=O)[C@H](CC(=O)O)NC(=O)[C@H](CO)NC(=O)[C@@H](NC(=O)C(C)(Cc1ccccc1)NC(=O)[C@@H](NC(=O)CNC(=O)[C@H](CCC(=O)O)NC(=O)C(C)(C)NC(=O)[C@@H](N)Cc1ccc(O)cc1)[C@@H](C)O)[C@@H](C)O)C(=O)NC(C)(C)C(=O)N[C@@H](CC(C)C)C(=O)N[C@@H](CC(=O)O)C(=O)N[C@@H](CCCCN)C(=O)N[C@@H](CCC(N)=O)C(=O)N[C@@H](C)C(=O)N[C@@H](CCC(N)=O)C(=O)N[C@@H](C)C(=O)N[C@@H](CCC(=O)O)C(=O)N[C@@H](Cc1ccccc1)C(=O)N[C@H](C(=O)N[C@@H](CCCCNC(=O)COCCOCCNC(=O)COCCOCCNC(=O)COCCOCCNC(=O)CC[C@H](NC(=O)CCCCCCCCCCCCCCCCCCCCC(=O)O)C(=O)O)C(=O)N[C@@H](Cc1c[nH]c2ccccc12)C(=O)N[C@@H](CC(C)C)C(=O)N[C@@H](CC(C)C)C(=O)N[C@@H](CCCCN)C(=O)NCC(=O)NCC(=O)N1CCC[C@H]1C(=O)N[C@@H](CO)C(=O)N[C@@H](CO)C(=O)NCC(=O)N[C@@H](C)C(=O)N1CCC[C@H]1C(=O)N1CCC[C@H]1C(=O)N1CCC[C@H]1C(=O)N[C@@H](CO)C(=O)N[C@@H](CCCCN)C(N)=O)C(C)C` (some centres unmarked) [P016], the MRT inf [1] was 31.1 ± 1 h, the MRT last [1] was 28.1 ± 1.12 h and the T1/2 [1] was 14.1 ± 0.153 h. The MRT inf ([2]; iv) was 26.6 h, the MRT last ([2]; iv) was 19.9 h and the MRT inf ([2]; sc) was 35.9 h. For the same molecule, the MRT last ([2]; sc) was 26 h, the MRT inf ([3]; iv, 12.5 nmol/kg) was 72.9 ± 10.9 h and the MRT last ([3]; iv, 12.5 nmol/kg) was 65.3 ± 8.85 h. The T1/2 ([3]; iv, 12.5 nmol/kg) was 59.81 ± 8.95 h, the MRT inf ([3]; sc, 25 nmol/kg) was 101 ± 19.2 h and the MRT last ([3]; sc, 25 nmol/kg) was 96.5 ± 15.9 h. The T1/2 ([3]; sc, 25 nmol/kg) was 60.40 ± 12.80 h, the AUC(0-t) ([4]; beagle dogs, single subcutaneous administration, plasma) was 29925 ng·h/mL and the MRT inf ([4]; dog, in vivo, sc) was 108 ± 23.2 h. It also gave an MRT last ([4]; dog, in vivo, sc) of 44.8 ± 4.17 h, a T1/2 ([4]; dog, in vivo, sc) of 69.32 h and an MTD ([5]; MTD for 2 weeks, twice a week) of 1.92 µmol/kg. The MTD ([5]; continuously administered twice a week for 2 weeks) was greater than 10 mg/kg, the “Toxicokinetic: Cmax and AUC versus dose” value (SD male rats; male SD rats, 1, 3, 10 mg/kg) was “increase nearly proportionally to the dose” and the “Toxicokinetic: accumulation” value (SD male rats; male SD rats, continuously administered twice a week for 2 weeks) was “no substantial accumulation”. The “Food Intake” value (SD male rats; [7]) was “dose-dependent decrease”, the “Gross Anatomy” value (SD male rats; [7]) was “no abnormalities are found” and the “Safety Window (based on dosage)” value (SD male rats; rat MTD for 2 weeks vs efficacy dose in db/db mice) was 1282. The “heart rate recovery time” value [6] was 72 to 120 h and the “increase in HR” value [6] was “lower than that for Tirepatide”.
